In ChEMBL document CHEMBL3244214, “Molar volume relationships and the specific inhibition of a synaptosomal enzyme by psychoactive cannabinoids” (J Med Chem, 1978) one finds pKi, Vm and pAH50 data, which are given here for 15 molecules.

The nature of data set [1]: Inhibition of mouse brain synaptosomal Lysophosphatidylcholine acyltransferase using substrate [32P]lysophosphatidylcholine and oleoyl-CoA.
The nature of data set [2]: Molar volume, Vm of the compound at zero temperature. Format: physicochemical.
Data set [3] can be described thus: Antihemolytic potency against hypotonic lysis-induced erythrocytes (unknown origin) assessed as stabilization. Format: functional, Erythrocyte.

Structures are written as SMILES.

The term pKi denotes −log10 of the Ki, conventionally taken in molar units. Consider `CC(C)[C@]12CC(=O)[C@H](C)[C@H]1C2`, for which, in data set [1], the negative logarithm of the Ki (pKi) is listed as 3.15. Moreover, the Vm in data set [2] is recorded as 1.132 ×10⁻⁴ m3/mol. The pAH50 in data set [3] was 3.
On to `CCCCCc1cc(O)c2c(c1)OC(C)(C)[C@@H]1CCC(CO)=C[C@@H]21`, for which, in data set [1], the negative-log Ki (pKi) amounted to 4.07. In addition, in data set [2], the Vm stood at 2.746 ×10⁻⁴ m3/mol. Moreover, the pAH50 in data set [3] worked out at 3.72.
For the molecule `CCCCCCc1cc(O)c2c(c1)OC(C)(C)C1=C2CC(C)CC1` (centres undefined), in data set [1], the pKi is recorded as 3.6. In data set [2], this molecule showed a Vm of 2.828 ×10⁻⁴ m3/mol. The pAH50 in data set [3] came to 4.03.
In turn, `Oc1ccccc1Cl` [2-CHLOROPHENOL] returned a negative-log Ki (pKi) in data set [1] of 2.48. Further, the Vm in data set [2] is reported as 8.975 ×10⁻⁵ m3/mol. In data set [3], the pAH50 turned out to be 2.94.
In turn, `CCCCCc1cc(O)c(C/C=C(\C)CCC=C(C)C)c(O)c1` [CANNABIGEROL] came in with a pKi in data set [1] of 3.59. The Vm in data set [2] came to 2.861 ×10⁻⁴ m3/mol. In addition, the pAH50 in data set [3] stood at 4.66.
The corresponding values for `CCCCCc1cc(O)c2c(c1)OC(C)(C)c1ccc(C)cc1-2` [CANNABINOL] are 3.26, 2.601 ×10⁻⁴ m3/mol and 4.4.
Molecule `CN(C)CCCN1c2ccccc2Sc2ccc(Cl)cc21` [CHLORPROMAZINE] showed a negative-log Ki (pKi) in data set [1] of 3.1. This molecule had a Vm in data set [2] of 2.406 ×10⁻⁴ m3/mol. Besides, the pAH50 in data set [3] came out at 5.09.
The corresponding values for `CCCCCCCCCCO` [DECANOL] are 3.77, 1.576 ×10⁻⁴ m3/mol and 5.
The corresponding values for `CCCCCc1cc(O)c2c(c1)OC(C)(C)[C@@H]1CC=C(C)C[C@@H]21` [DELTA-8-TETRAHYDROCANNABINOL] are 4.24, 2.687 ×10⁻⁴ m3/mol and 3.85.
In data set [1], `CCCCCCCCCCCCO` [DODECANOL] gave a negative-log Ki (pKi) of 3.39. Moreover, the Vm in data set [2] is recorded as 1.858 ×10⁻⁴ m3/mol. The pAH50 in data set [3] amounted to 5.27.
Take `CCCCCc1cc(O)c2c(c1)OC(C)(C)[C@@H]1CCC(C)=C[C@@H]21` [DRONABINOL]: in data set [1], the negative logarithm of the Ki (pKi) was 6.52. The Vm in data set [2] was 2.687 ×10⁻⁴ m3/mol. The pAH50 in data set [3] is 4.1.
For `CCCCCCCCCO` [NONANOL], in data set [1], the pKi is 3.24. In data set [3], the pAH50 is 4.39.
With `CCCCCCCCO` [OCTANOL], in data set [1], the pKi was 2.77. Also, the Vm in data set [2] was found to be 1.295 ×10⁻⁴ m3/mol. Further, in data set [3], the pAH50 is listed as 3.63.
The like results for `Oc1ccc(Cl)cc1` [PARACHLOROPHENOL] were, in that order, 2.74, 8.975 ×10⁻⁵ m3/mol and 3.13.
`CC1=C(/C=C/C(C)=C/C=C/C(C)=C/CO)C(C)(C)CCC1` [RETINOL] showed a negative-log Ki (pKi) in data set [1] of 3.82. This molecule registered a Vm in data set [2] of 2.865 ×10⁻⁴ m3/mol. In data set [3], the pAH50 is on record as 5.49.
